Measurements from ChEMBL document CHEMBL1201862, “PubChem BioAssay data set” (2004).
Activity calls are given as the source filed them.

Columns and labels:
[1] = inhibitors of intracellular T. cruzi replication, confirmation, NIH3T3 host cells, beta-gal luminescence (AID 2044); assay type: functional, cell-based;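 further: intracellular parasites grown in NIH/3T3 mouse fibroblasts as host cells; luminescent beta-galactosidase reporter signal from transgenic T. cruzi replicating inside host cells; inhibitors lower the luminescence signal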
[2] = cytotoxicity toward NIH3T3 fibroblasts, dose response, counter-screen, cell-based, ATP luminescence, mouse fibroblasts (AID 2010); assay type: functional;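 further: cells exposed to compound for about 90 hours before reading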
[3] = target: FAD-linked sulfhydryl oxidase ALR (Homo sapiens, UniProt P55789); assay: inhibitors of human ALR sulfhydryl oxidase, dose response, biochemical, H2O2 detection, luminescence, cherry-pick (AID 493248)
Cytochrome P450 2C19 = Cytochrome P450 2C19 (Homo sapiens, UniProt P33261); assay: Cytochrome panel assay with activity outcomes. Panel member name: p450-cyp2c19 Compounds with AC50 equal or less than 10 uM are considered active; assay type: functional
[4] = NIH-3T3 fibroblast cytotoxicity, dose response, cytotoxicity control, cell-based, fluorescence, Alamar Blue, secondary assay (AID 2327); assay type: functional;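 further: NIH-3T3 mouse fibroblasts cultured with fluconazole at 8 µg/mL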
[5] = C. albicans growth with fluconazole, confirmation, fluorescence, retest (AID 2467); assay type: functional, cell-based
[6] = target: T1, Heat shock factor protein 1 (Mus musculus, UniProt P38532); assay: inhibition of MG132-induced HSE-luciferase signal, confirmation, cell-based, NIH3T3, luminescence, dose retest (AID 2382); assay type: functional;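 further: NIH3T3 fibroblasts with HSF1-driven luciferase reporter stressed by proteasome inhibitor MG132; luminescence from HSF1-driven luciferase expression after 8 hours of MG132 stress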
T1 sequence (P38532 whole entry): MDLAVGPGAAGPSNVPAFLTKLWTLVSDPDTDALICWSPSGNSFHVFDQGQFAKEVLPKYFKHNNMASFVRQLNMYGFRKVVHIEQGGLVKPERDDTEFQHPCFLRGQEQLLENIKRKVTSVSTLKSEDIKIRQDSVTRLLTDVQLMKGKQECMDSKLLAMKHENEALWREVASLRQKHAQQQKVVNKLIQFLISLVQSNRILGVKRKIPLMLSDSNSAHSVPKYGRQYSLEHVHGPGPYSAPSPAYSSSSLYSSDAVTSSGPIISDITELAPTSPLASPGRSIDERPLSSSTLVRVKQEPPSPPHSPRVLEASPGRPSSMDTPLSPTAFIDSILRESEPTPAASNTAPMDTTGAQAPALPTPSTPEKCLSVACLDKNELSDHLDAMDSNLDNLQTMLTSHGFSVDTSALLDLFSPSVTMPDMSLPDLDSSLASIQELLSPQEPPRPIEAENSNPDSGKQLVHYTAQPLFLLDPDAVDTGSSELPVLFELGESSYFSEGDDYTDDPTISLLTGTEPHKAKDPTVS

[7] = inhibitors of SNCA 5'UTR-driven reporter translation, confirmation, H4 neuroglioma cells, luminescence (AID 1988); assay type: functional, cell-based
[8] = inhibitors of firefly luciferase expression or activity, dose response, H4 neuroglioma cells, luminescence (AID 1990); assay type: functional, cell-based
[9] = Luminescence Cell-Based Dose Response HTS to Identify Inhibitors of 5'UTR Stem-Loop Driven Prion Protein mRNA Translation in H4 Neuroglioblastoma Cells. [Related pubchem assays: 1827 (Project Summary), 1813 (Primary HTS)]; assay type: functional
INS1 = assay: beta cell apoptosis inhibitors, cytokine rescue, dose response, luminescence, retest (AID 449756); assay type: functional, cell-based; conditions: Rattus norvegicus;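 further: cell death triggered by IL-1 beta plus TNF-alpha plus IFN-gamma mixture; protective hits raise ATP signal compared with cytokine alone wells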
[10] = Shn3 3'UTR reporter inhibitors, dose response, cell-based, Clone20 osteoblasts, firefly luciferase, cherry-picked (AID 624132); assay type: functional;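 further: firefly luciferase luminescence from reporter carrying the Shn3 3'UTR in osteoblasts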
[11] = control 3'UTR Renilla luciferase suppression, dose response, counter-screen for Shn3 inhibitor project, cell-based, Clone20-Shn3RL, cherry-picked (AID 624133); assay type: functional
Streptococcus = assay: Group A Streptococcus viability loss, dose response, counter-screen for streptokinase expression inhibitor project, luminescence, BacTiterGlo (AID 1915); assay type: functional, organism-based;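 further: potency for reduction of bacterial viability or growth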
[12] = system: Streptococcus sp. 'group A'; assay: growth inhibition of control SK(-) GAS strain, dose response, counter-screen for streptokinase expression inhibitor project, luminescence, kanamycin, BacTiterGlo, confirmation (AID 1900); assay type: functional, organism-based

Chain of Cytochrome P450 2C19 (P33261 whole entry): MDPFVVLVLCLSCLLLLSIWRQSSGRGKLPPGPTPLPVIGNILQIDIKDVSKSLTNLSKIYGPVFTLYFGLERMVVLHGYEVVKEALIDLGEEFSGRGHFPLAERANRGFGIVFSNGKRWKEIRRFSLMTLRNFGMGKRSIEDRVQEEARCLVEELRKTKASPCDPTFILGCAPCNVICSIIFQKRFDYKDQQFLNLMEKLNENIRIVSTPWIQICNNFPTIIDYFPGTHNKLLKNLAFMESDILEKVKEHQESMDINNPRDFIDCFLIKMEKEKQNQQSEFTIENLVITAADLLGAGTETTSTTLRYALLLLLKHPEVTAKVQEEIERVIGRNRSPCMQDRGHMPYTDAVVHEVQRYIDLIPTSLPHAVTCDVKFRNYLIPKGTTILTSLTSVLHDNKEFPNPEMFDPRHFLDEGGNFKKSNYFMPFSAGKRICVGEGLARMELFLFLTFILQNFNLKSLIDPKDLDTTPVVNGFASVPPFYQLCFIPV
Chain of FAD-linked sulfhydryl oxidase ALR (P55789 whole entry): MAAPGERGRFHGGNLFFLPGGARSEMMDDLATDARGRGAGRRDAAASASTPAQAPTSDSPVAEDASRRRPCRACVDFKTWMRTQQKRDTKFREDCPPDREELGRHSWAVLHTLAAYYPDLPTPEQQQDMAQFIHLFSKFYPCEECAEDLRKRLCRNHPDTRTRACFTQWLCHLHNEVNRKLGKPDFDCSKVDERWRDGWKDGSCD

COc1ccc(CCN(C)CCC(=O)Nc2ccc(C)cc2)cc1OC
EC50 [1]: 0.227 µM (active)
EC50 [2]: > 60 µM (not active)

CCN(CCCNS(=O)(=O)c1ccc2c(c1)CCN2C(C)=O)c1cccc(C)c1
AC50 [3]: 2.81 µM (active)

COc1c(Cl)cc(Cl)cc1CNCCNCC(C)O (centres undefined)
AC50 (Cytochrome P450 2C19; read-out: AC50): 14.1 µM (inconclusive)

COC(=O)C1=CN(Cc2ccc(OC)c(OC)c2)C=C(C(=O)OC)C1c1cccc(OC)c1OC
EC50 [1]: 0.384 µM (active)
EC50 [2]: > 60 µM (not active)

O=C(CSc1ccc(Cl)cc1)Nc1nnc(-c2ccco2)o1
EC50 [4]: > 160 µM (inconclusive)
EC50 [5]: 3.02 µM (active)

Cc1ccc(S(=O)(=O)CCC(=O)Nc2ccc(Br)cc2)cc1
EC50 [6]: > 195 µM (not active)

COc1cc(/C=C2/C(=O)ON=C2C)cc(Cl)c1O
AC50 [3]: 16 µM (active)

Cc1ccc2nc(Cl)c(-c3ccccc3)cc2c1
EC50 [7]: > 120 µM (not active)
EC50 [8]: > 120 µM (not active)
EC50 [9]: > 120 µM (not active)

CCN(CC)c1ccc(NC(=O)C2CC3CCC2C3)cc1 (centres undefined)
AC50 [3]: 0.431 µM (active)

O=C(NCC(c1ccco1)N1CCc2ccccc21)c1ccccc1F (centres undefined)
AC50 [3]: 1.67 µM (active)

Cn1c(=O)[nH]c(=O)c2c1nc(CN1CCOCC1)n2CCCO
AC50 (Cytochrome P450 2C19): inconclusive

Brc1ccc2c(c1)[C@H]1OCC[C@H]1[C@@H](c1cccs1)N2
EC50 [7]: 13.2 µM (active)
EC50 [8]: > 60 µM (not active)
EC50 [9]: 17.2 µM (active)

O=C(NCc1ccc(C(=O)O)cc1)OCc1ccccc1
EC50 [6]: > 195 µM (not active)

C/C(=N\Nc1nc(C)cc(-c2ccccc2)n1)c1ccc(O)cc1
AC50 (INS1): 0.993 µM (active)

Cc1cccc(C(=O)NC(=S)N2CCN(c3ccc([N+](=O)[O-])cc3)CC2)c1
EC50 [6]: > 195 µM (not active)

Nc1ccc(Cl)c(S(=O)(=O)Nc2ccc(Cl)cc2)c1
EC50 [1]: 39.7 µM (active)
EC50 [2]: > 60 µM (not active)

O=C(CN1CCN(S(=O)(=O)c2ccc3ccccc3c2)CC1)NC(=O)NC1CCCCC1
EC50 [7]: 46.8 µM (active)
EC50 [8]: 13 µM (active)
EC50 [9]: > 120 µM (not active)

CCCc1nnc(N=C(S)Nc2ccccc2)s1
EC50 [4]: > 160 µM (inactive)
EC50 [5]: 1.09 µM (active)

COc1ccccc1C(=O)NCCn1cc(SCC(=O)Nc2cc(C)on2)c2ccccc21
EC50 [7]: > 120 µM (not active)
EC50 [8]: 16.2 µM (active)
EC50 [9]: > 120 µM (not active)

COc1ccccc1NS(=O)(=O)c1cccc(NC(=O)c2[nH]c(C)c(C(C)=O)c2C)c1
AC50 (INS1): 31.1 µM (active)

O=C(CCn1c(=S)oc2ccccc21)NC1CCCCCC1
EC50 [6]: > 195 µM (not active)

CC(=O)Nc1ccc2c(c1)OCCO2
AC50 (Cytochrome P450 2C19; read-out: AC50): 17.8 µM (inconclusive)

CC(=O)N1CCOCCOCCN(C(C)=O)CCOCCOCC1
EC50 [4]: > 150 µM (inconclusive)

c1ccc(CNc2ncnc3sc4c(c23)CCCC4)nc1
AC50 [3]: 37.2 µM (active)

COc1ccc(CNC(=O)c2ccc(CS(=O)(=O)c3ccc(Br)cc3)o2)cc1
EC50 [6]: > 195 µM (not active)

Cc1cccc(N2CCN(C(=O)NC3CCCCC3)CC2C)c1 (centres undefined)
AC50 [3]: 6.6 µM (active)

CCOC(=O)N1CCN(CC(c2ccccc2)c2ccccc2)CC1
AC50 [10]: 14.1 µM (active)
AC50 [11]: 39.1 µM (active)

C/C(=N\Nc1ccc(Cl)c(C(=O)O)c1)c1cc2ccccc2o1
AC50 [3]: 0.138 µM (active)

NC1=NC(=O)C(Cc2cccc(Cl)c2Cl)S1 (centres undefined)
EC50 [4]: 21.6 µM (inconclusive)
EC50 [5]: > 38 µM (not active)

O=C(NCc1ccco1)c1ccccc1NS(=O)(=O)c1ccc(Cl)s1
AC50 [3]: 2.1 µM (active)

CCc1ccc(C(=O)NNc2cc(Cl)ccc2Cl)cc1
AC50 (INS1): 6.64 µM (active)

COc1ccccc1N1CCN(C(S)=Nc2ccc(F)cc2)CC1
EC50 [6]: 54.6 µM (active)

CN(C)c1ccc(CNc2ncnc3sccc23)cc1
EC50 [4]: > 160 µM (inactive)
EC50 [5]: 2.63 µM (active)

CN1C2CCC1CC(OC(=O)c1ccc(Cl)cc1)C2 (centres undefined)
AC50 (Cytochrome P450 2C19; read-out: AC50): 5.62 µM (inconclusive)

C1=C(c2ccccc2)CCN(c2[nH]cnc3ncnc2-3)C1
EC50 [6]: > 195 µM (not active)

Cc1cccc2cc(CN(Cc3cccs3)Cc3nnnn3Cc3ccccc3)c(O)nc12
EC50 [1]: 2.68 µM (active)
EC50 [2]: > 30 µM (not active)

O=C(CC(Sc1ccc(Br)cc1)C(=O)O)c1ccc(F)cc1 (centres undefined)
EC50 [1]: 2.1 µM (active)
EC50 [2]: > 30 µM (not active)

COc1cc(OC)cc(-c2cc(N3C(=O)Nc4ccccc4N3O)[nH]n2)c1
EC50 [6]: 73.7 µM (active)

c1ccc(-n2ncc3c(NCCCN4CCOCC4)ncnc32)cc1
AC50 (Cytochrome P450 2C19; read-out: AC50): 15.8 µM (inconclusive)

C=CCn1c(S)nnc1-c1cccn(Cc2ccccc2)c1=O
EC50 [7]: > 120 µM (not active)
EC50 [8]: > 120 µM (not active)
AC50 (Cytochrome P450 2C19; read-out: AC50): 25.1 µM (inconclusive)
EC50 [9]: 27.4 µM (active)

O=C(N/N=C/c1ccccc1F)NC12CC3CC(CC(C3)C1)C2
EC50 [1]: 2.78 µM (active)
EC50 [2]: > 30 µM (not active)

Cc1ccc(-c2nc(-c3cccnc3)sc2CC(=O)O)cc1
AC50 [3]: 3.45 µM (active)

O=c1[nH]n2c(C(F)(F)F)cc(C3CC3)nc2c1N=Nc1ccccc1
EC50 [4]: > 150 µM (inactive)
EC50 [5]: 1.05 µM (active)

Cc1cc(C(=O)N2CCCC(Nc3ccc(C(C)C)cc3)C2)nn1C (centres undefined)
AC50 [3]: 6.69 µM (active)

CCOC(=O)c1cc(-c2ccccc2)sc1NC(=O)CN1C(=O)NC(CC)(c2ccccc2)C1=O (centres undefined)
EC50 [1]: 2.17 µM (active)
EC50 [2]: > 60 µM (inconclusive)

Cc1ccc(NC(S)=NC2CC3CCC(C2)N3Cc2ccco2)cc1C (centres undefined)
EC50 [6]: > 195 µM (not active)

COc1ccc(CNC(=O)OCCN2CCN(S(=O)(=O)c3ccc(C)cc3)CCC2=O)cc1
EC50 [6]: > 195 µM (not active)

Cc1ccc(S(=O)(=O)CC(=O)Nc2ccc(S(=O)(=O)Nc3onc(C)c3C)cc2)cc1
EC50 [6]: > 195 µM (not active)

CCOC(=O)N1CCN(c2nc(C)c3c(n2)CCCC3=O)CC1
EC50 [6]: > 195 µM (not active)

O=C(c1cc([N+](=O)[O-])ccc1N1CCCCC1)N1CCc2ccccc21
EC50 [7]: 10.9 µM (active)
EC50 [8]: > 120 µM (not active)
EC50 [9]: > 120 µM (not active)

O=C(CSc1oc(-c2cccs2)nc1S(=O)(=O)c1ccccc1)NC1CCCCC1
EC50 [1]: 1.13 µM (active)
EC50 [2]: > 60 µM (inconclusive)

Oc1[nH]c2ccc(Br)cc2c1N=Nc1ccc(C(F)(F)F)cn1
EC50 [1]: 2.33 µM (active)
EC50 [2]: > 60 µM (not active)

CS(=O)(=O)Nc1nc2ccccc2[nH]1
EC50 [6]: > 195 µM (not active)

CC(=O)O[C@H]1CC[C@]2(C)[C@H]3CC=C4[C@@H]5[C@@H](C)[C@H](C)CC[C@]5(C(=O)O)CC[C@@]4(C)[C@]3(C)CC[C@H]2C1(C)C [O-ACETYLURSOLIC ACID]
EC50 (Streptococcus): 3.26 µM (active)
EC50 [12]: 2.11 µM (active)

O=C(Nc1ccc(-c2nc3ccccc3s2)cc1)C1=COCCO1
EC50 [7]: 2.95 µM (active)
EC50 [9]: 5.8 µM (active)

Cc1c(Br)cnn1C(C)C(=O)N1CCN(c2ccc(F)cc2)CC1 (centres undefined)
AC50 [3]: 0.578 µM (active)

Cc1cccc(Sc2nc(-c3ccccc3)ncc2C(=O)O)c1
EC50 [4]: 104 µM (active)
EC50 [5]: 1.66 µM (active)

Cc1ccc(C(=O)N(Cc2cccnc2)Cc2cc3cc(C)ccc3n3nnnc23)cc1
EC50 [1]: 1.29 µM (active)
EC50 [2]: > 60 µM (not active)

CC1=NN(c2ccccc2)C(=O)C1/C=C1/C(=O)NC(=O)N(c2cc(C)cc(C)c2)C1=O (centres undefined)
AC50 [3]: 1.76 µM (active)

COc1ccc(Nc2ncnc3sc(-c4ccccc4)cc23)cc1
EC50 [6]: > 195 µM (not active)

CCN(CC)S(=O)(=O)c1cc(C)ccc1N=C(S)Nc1cccnc1
AC50 (INS1): 43.2 µM (active)

CCC1=NN2C(=N)/C(=C\c3cccn3-c3ccc(C)c(C)c3)C(=O)N=C2S1
EC50 (Streptococcus): 6.01 µM (active)
EC50 [12]: 3.34 µM (active)

CCc1ccc(-[n+]2cc(-c3ccc(F)cc3)n3c2SCCC3)cc1
AC50 (INS1): 0.429 µM (active)

COc1ccc(/C=C2\SC(=S)N(CCCC(=O)N3CCN(C)CC3)C2=O)cc1
EC50 [1]: 1.06 µM (active)
EC50 [2]: 8.7 µM (active)

O=C(Cn1cc(C(=O)c2ccco2)c2ccccc21)NC1CCCCC1
EC50 [6]: > 195 µM (not active)
